# Laboratory results from patent publication US12686692B2, “KRas G12D inhibitors” (Mirati Therapeutics, Inc., priority 2020, dated 2026).
# pIC50: −log10 of the molar value.
# What was measured:
# [1] = biological target: KRas G12D (Homo sapiens, UniProt P01116, G12D); experiment: KRas G12D Binding Assay (TR-FRET displacement of labeled tracer); parameters: corresponding to amino acids 1:169, produced at Array BioPharma; biotin (protein is biotinylated); conditions: TR-FRET displacement of Cy5 labelled tracer, biotinylated GDP-loaded KRAS G12D (aa 1:169), 60 minute incubation at 22° C.
# Description: This Example illustrates that exemplary compounds of the present invention bind to KRas G12D and are capable of displacing a labeled tracer ligand occupying the KRas G12D binding site.
# The ability of a compound to bind to KRAS G12D was measured using a TR-FRET displacement assay. Biotinylated GDP-loaded recombinant human KRAS G12D (corresponding to amino acids 1:169, produced at Array BioPharma) was incubated with a custom-made Cy5 labelled tracer, europium labelled streptavidin and compound (2% DMSO final) in buffer (50 mM HEPES [pH 7.5], 5 mM MgCl2, 0.005% Tween-20 & 1 mM DTT). After a 60 minute incubation at 22° C., the reaction was measured using a PerkinElmer EnVision multimode plate reader via TR-FRET dual wavelength detection, and the percent of control (POC) calculated using a ratiometric emission factor. […] The POC values were fit to a 4-parameter logistic curve and the IC50 value was determined as the concentration where the curve crosses 50 POC.
# [2] = test system: KRas G12D-mediated Phosphorylation of ERK; experiment: Inhibition of KRas G12D-mediated Phosphorylation of ERK in AGS cells; format: cell-based; conditions: Homo sapiens; AGS cells expressing G12D, 3 hours, phospho-ERK normalized to GAPDH
# Description: AGS cells (ATCC CRL-1739) expressing G12D were grown in DMEM medium supplemented with 10% fetal bovine serum, 10 mM HEPES, and Penicillin/Streptomycin. Cells were plated in tissue culture treated 96 well plates at a density of 40,000 cells/well and allowed to attach for 12-14 hours. Diluted compounds were then added in a final concentration of 0.5% DMSO. After 3 hours, the medium was removed, 150 μl of 4.0% formaldehyde was added and the plates incubated at room temperature for 20 minutes. The plates were washed with PBS, and permeabilized with 150 μL of ice cold 100% methanol for 10 minutes. Non-specific antibody binding to the plates was blocked using 100 μL Licor blocking buffer (Li-Cor Biotechnology, Lincoln NE) for 1 hour at room temperature.
# The amount of phospho-ERK was determined using an antibody specific for the phosphorylated form of ERK and compared to the amount of GAPDH. Primary antibodies used for the detection were added as follows: Phospho-ERK(Cell Signaling cs-9101) diluted 1:500 and GAPDH(Millipore MAB374) diluted 1:5000 in Licor block+0.05% Tween 20. The plates were incubated for 2 hours at room temperature. The plates were washed with PBS+0.05% Tween 20.
# Secondary antibodies used to visualize primary antibodies were added as follows: Anti-rabbit-680 diluted 1:1000 and Anti-mouse-800 diluted 1:1000 both in Licor block+0.05% Tween20, and were incubated for 1 hour at room temperature. The plates were washed with PBS+0.05% Tween 20. A 100 μl aliquot of PBS was added to each well and the plates were read on a Li-Cor Odyssey CLX plate reader.
# The phospho-ERK(Thr202/Tyr204 signal was normalized to the GAPDH signal for each well and percent of DMSO control values were calculated. IC50 values were generated using a 4-parameter fit of the dose response curve.
# KRas G12D, sequence (P01116 1-169 isoform P01116-2 G12D): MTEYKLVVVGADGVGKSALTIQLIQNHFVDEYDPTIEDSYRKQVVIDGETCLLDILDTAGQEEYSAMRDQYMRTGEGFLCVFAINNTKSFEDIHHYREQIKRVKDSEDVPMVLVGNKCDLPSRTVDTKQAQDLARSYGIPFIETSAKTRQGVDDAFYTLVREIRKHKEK
Compound,pIC50 [1],pIC50 [2]
"CNC(=O)OCC1CCC2(COc3nc4c(c(N5C[C@H]6CC[C@@H](C5)N6)n3)CCN(c3cccc5cccc(Cl)c35)C4)CCCN12 (mixture of isomers) [Example 100, (7a-(((4-((1R,5S)-3,8-diazabicyclo[3.2.1]octan-3-yl)-7-(8-chloronaphthalen-1-yl)-5,6,7,8-tetrahydropyrido[3,4-d]pyrimidin-2-yl)oxy)methyl)hexahydro-1H-pyrrolizin-3-yl)methyl methylcarbamate]",8.01,5.88
"CCc1cccc2cccc(N3CCc4c(nc(OCC56CCCN5C(CO)CC6)nc4N4C[C@H]5CC[C@@H](C4)N5)C3)c12 (mixture of isomers) [Example 103, (7a-(((4-((1R,5S)-3,8-diazabicyclo[3.2.1]octan-3-yl)-7-(8-ethylnaphthalen-1-yl)-5,6,7,8-tetrahydropyrido[3,4-d]pyrimidin-2-yl)oxy)methyl)hexahydro-1H-pyrrolizin-3-yl)methanol]",8.41,5.21
"COC[C@@H]1C[C@@H]2CN(c3nc(OC[C@@H]4CCCN4C)nc4c3CCN(c3cccc5cccc(Cl)c35)C4)C[C@H]1N2 (single isomer, unassigned) [Example 93]",6.44,< 4.78
"CCc1cccc2cccc(N3CCc4c(nc(OCC56CCCN5[C@@H](COC(=O)NC)CC6)nc4N4CC5CCC(C4)N5)C3)c12 (stereo partly drawn) [Example 5, (7a-(((4-((1R,5S)-3,8-diazabicyclo[3.2.1]octan-3-yl)-7-(8-ethylnaphthalen-1-yl)-5,6,7,8-tetrahydropyrido[3,4-d]pyrimidin-2-yl)oxy)methyl)hexahydro-1H-pyrrolizin-3-yl)methyl methylcarbamate (trans enantiomers)]",8.80,6.85
"CCc1cccc2cc(O)cc(N3CCc4c(nc(OC[C@@]56CCCN5C[C@H](F)C6)nc4N4C[C@H]5CC[C@@H](C4)N5)C3)c12 [Example 7, 4-(4-((1R,5S)-3,8-diazabicyclo[3.2.1]octan-3-yl)-2-(((2R,7aS)-2-fluorotetrahydro-1H-pyrrolizin-7a(5H)-yl)methoxy)-5,8-dihydropyrido[3,4-d]pyrimidin-7(6H)-yl)-5-ethylnaphthalen-2-ol]",9.00,7.89
"CCc1cccc2cccc(N3CCc4c(nc(OC[C@@H]5CCCN5C)nc4N4C[C@H]5CC[C@@H](C4)N5)C3)c12 [Example 8, 4-((1R,5S)-3,8-diazabicyclo[3.2.1]octan-3-yl)-7-(8-ethylnaphthalen-1-yl)-2-(((S)-1-methylpyrrolidin-2-yl)methoxy)-5,6,7,8-tetrahydropyrido[3,4-d]pyrimidine]",8.26,4.90
"CCc1cccc2cccc(N3CCc4c(nc(OCC56CCCN5CCC6)nc4N4C[C@H]5CC[C@@H](C4)N5)C3)c12 [Example 10, 4-((1R,5S)-3,8-diazabicyclo[3.2.1]octan-3-yl)-7-(8-ethylnaphthalen-1-yl)-2-((tetrahydro-1H-pyrrolizin-7a(5H)-yl)methoxy)-5,6,7,8-tetrahydropyrido[3,4-d]pyrimidine]",8.96,6.13
"CCc1cccc2cccc(N3CCc4c(nc(OCC56CCCN5[C@@H](COC(=O)N(C)C)CC6)nc4N4CC5CCC(C4)N5)C3)c12 (stereo partly drawn) [Example 13, (7a-(((4-((1R,5S)-3,8-diazabicyclo[3.2.1]octan-3-yl)-7-(8-ethylnaphthalen-1-yl)-5,6,7,8-tetrahydropyrido[3,4-d]pyrimidin-2-yl)oxy)methyl)hexahydro-1H-pyrrolizin-3-yl)methyl dimethylcarbamate (trans enantiomers)]",8.89,6.58
"CCc1cccc2cc(O)cc(N3CCc4c(nc(OCC56CCCN5CCC6)nc4N4C[C@H]5CC[C@@H](C4)N5)C3)c12 [Example 14, 4-(4-((1R,5S)-3,8-diazabicyclo[3.2.1]octan-3-yl)-2-((tetrahydro-1H-pyrrolizin-7a(5H)-yl)methoxy)-5,8-dihydropyrido[3,4-d]pyrimidin-7(6H)-yl)-5-ethylnaphthalen-2-ol]",8.96,7.68
"CCc1cccc2cccc(N3CCc4c(nc(OC[C@]56CCCN5[C@@H](COC(=O)NC)CC6)nc4N4C[C@H]5CC[C@@H](C4)N5)C3)c12 [Example 18, ((3R,7aR)-7a-(((4-((1R,5S)-3,8-diazabicyclo[3.2.1]octan-3-yl)-7-(8-ethylnaphthalen-1-yl)-5,6,7,8-tetrahydropyrido[3,4-d]pyrimidin-2-yl)oxy)methyl)hexahydro-1H-pyrrolizin-3-yl)methyl methylcarbamate]",8.70,7.15
"CCc1c(F)ccc2cccc(N3CCc4c(nc(OCC56CCCN5CCC6)nc4N4C[C@H]5CC[C@@H](C4)N5)C3)c12 [Example 19, 4-((1R,5S)-3,8-diazabicyclo[3.2.1]octan-3-yl)-7-(8-ethyl-7-fluoronaphthalen-1-yl)-2-((tetrahydro-1H-pyrrolizin-7a(5H)-yl)methoxy)-5,6,7,8-tetrahydropyrido[3,4-d]pyrimidine]",8.74,6.49
"CN(C)C(=O)OC[C@H]1CCC2(COc3nc4c(c(N5CC6CCC(C5)N6)n3)CCN(c3cccc(Cl)c3C3CC3)C4)CCCN12 (stereo partly drawn) [Example 33, (7a-(((4-((1R,5S)-3,8-diazabicyclo[3.2.1]octan-3-yl)-7-(3-chloro-2-cyclopropylphenyl)-5,6,7,8-tetrahydropyrido[3,4-d]pyrimidin-2-yl)oxy)methyl)hexahydro-1H-pyrrolizin-3-yl)methyl dimethylcarbamate (trans enantiomers)]",7.30,5.26
"CNC(=O)OC[C@H]1CCC2(COc3nc4c(c(N5CC6CCC(C5)N6)n3)CCN(c3cccc5cccc(F)c35)C4)CCCN12 (stereo partly drawn) [Example 34, (7a-(((4-((1R,5S)-3,8-diazabicyclo[3.2.1]octan-3-yl)-7-(8-fluoronaphthalen-1-yl)-5,6,7,8-tetrahydropyrido[3,4-d]pyrimidin-2-yl)oxy)methyl)hexahydro-1H-pyrrolizin-3-yl)methyl methylcarbamate (trans enantiomers)]",6.95,5.41
"CN1CCC[C@H]1COc1nc2c(c(N3C[C@H]4C[C@H](O)[C@@H](C3)N4)n1)CCN(c1cccc3cccc(Cl)c13)C2 [Example 96, (1R,5R,6S)-3-(7-(8-chloronaphthalen-1-yl)-2-(((S)-1-methylpyrrolidin-2-yl)methoxy)-5,6,7,8-tetrahydropyrido[3,4-d]pyrimidin-4-yl)-3,8-diazabicyclo[3.2.1]octan-6-ol]",6.48,< 4.78
"CCc1cccc2cccc(N3CCc4c(nc(OC[C@]56CCCN5[C@@H](COC(=O)N5CCOCC5)CC6)nc4N4C[C@H]5CC[C@@H](C4)N5)C3)c12 [Example 97, ((3R,7aR)-7a-(((4-((1R,5S)-3,8-diazabicyclo[3.2.1]octan-3-yl)-7-(8-ethylnaphthalen-1-yl)-5,6,7,8-tetrahydropyrido[3,4-d]pyrimidin-2-yl)oxy)methyl)hexahydro-1H-pyrrolizin-3-yl)methyl morpholine-4-carboxylate]",8.92,6.73
"CCc1c(F)ccc2cccc(N3CCc4c(nc(OC[C@]56CCCN5[C@@H](COC(=O)N5CCOCC5)CC6)nc4N4C[C@H]5CC[C@@H](C4)N5)C3)c12 [Example 98, ((3R,7aR)-7a-(((4-((1R,5S)-3,8-diazabicyclo[3.2.1]octan-3-yl)-7-(8-ethyl-7-fluoronaphthalen-1-yl)-5,6,7,8-tetrahydropyrido[3,4-d]pyrimidin-2-yl)oxy)methyl)hexahydro-1H-pyrrolizin-3-yl)methyl morpholine-4-carboxylate]",9.15,7.30
"CCc1cccc2cccc(N3CCc4c(nc(OC[C@]56CCCN5[C@@H](COC(=O)N5CCCC5)CC6)nc4N4C[C@H]5CC[C@@H](C4)N5)C3)c12 [Example 99, ((3R,7aR)-7a-(((4-((1R,5S)-3,8-diazabicyclo[3.2.1]octan-3-yl)-7-(8-ethylnaphthalen-1-yl)-5,6,7,8-tetrahydropyrido[3,4-d]pyrimidin-2-yl)oxy)methyl)hexahydro-1H-pyrrolizin-3-yl)methyl pyrrolidine-1-carboxylate]",8.57,6.25
